{"source": "patent US10697020B2", "about": "“MicroRNA-129 as a biomarker for colorectal cancer” (THE RESEARCH FOUNDATION FOR THE STATE UNIVERSITY OF NEW YORK, priority 2013, dated 2020)", "test_system": "HCT116, RKO and SW480 cells", "assay": "Apoptosis assay (annexin V / propidium iodide, flow cytometry)", "assay_type": "cell-based, human", "details": "all colorectal cancer cell lines tested (HCT116, RKO, SW480); 48 h after transfection; vs negative miRNA", "protocol": "HCT116, RKO and SW480 cells were plated in 6-well plates at 2×10^5, 1×10^5 and 1×10^5 per well, respectively. Twenty-four hours after plating, 100 nM of miR-129 precursor (Ambion, Carlsbad, Calif., USA) or siRNA against BCL2 (Dharmacon, Lafayette, Colo., USA) were transfected to the cells with oligofectamine (Invitrogen, Carlsbad, Calif., USA) in accordance with the manufacturer's protocol. Negative miRNA (Ambion) was also transfected as a negative control.\nForty-eight hours after transfection, cells were harvested, stained with propidium iodide and anti annexin-V antibody (Annexin V-FITC Apoptosis Detection kit, BD Biosciences, San Jose, Calif., USA) following the manufacturer's protocol, and stained cells were detected by flow cytometry. The experiments for the apoptosis assay were performed at least three times."}
{"substance": "miR-129: nucleic acid having a sequence of CUUUUUGCGGUCUGGGCUUGC (SEQ ID NO. 1); miR-129 precursor from Ambion used (chemistry not given here; listed as Homo sapiens)", "values": [{"measurement": "apoptosis (proportion of cells annexin V positive and propidium iodide negative)", "value": "increased apoptosis significantly"}]}
